Target: T1, human zDHHC15 (Homo sapiens, UniProt Q96MV8)
T1 construct: expressed in transfected cells; host or cells: HEK293T
T1 sequence (Q96MV8 1-337): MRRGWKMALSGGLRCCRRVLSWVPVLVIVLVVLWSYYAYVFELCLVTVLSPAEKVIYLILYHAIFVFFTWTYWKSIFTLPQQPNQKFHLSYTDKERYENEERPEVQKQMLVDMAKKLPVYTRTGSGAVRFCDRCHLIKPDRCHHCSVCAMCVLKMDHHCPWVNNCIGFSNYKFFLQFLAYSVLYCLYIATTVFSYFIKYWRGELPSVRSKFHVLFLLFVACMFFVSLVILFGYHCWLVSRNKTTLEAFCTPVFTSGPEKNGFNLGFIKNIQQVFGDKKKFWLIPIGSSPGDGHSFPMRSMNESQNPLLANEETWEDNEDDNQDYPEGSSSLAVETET
Experiment: GFP-SNAP25b S-acylation in HEK293T cells co-expressing zDHHC15
Assay type: cell-based
Conditions: HEK-293T; in cellulo HEK293T, compound 25 μM; read-out: SNAP25 S-acylation inhibition (%), zDHHC15
Description: We next investigated whether the identified compounds were effective at inhibiting zDHHC enzyme isoforms other than zDHHC2 (Fig. 6 and Table 1). […] We therefore treated cells coexpressing GFP-SNAP25 and each of these zDHHC enzymes with 25 μM of TTZ-1 and TTZ-2 and studied the subsequent effect on SNAP25 S-acylation. […] Importantly, the level of enzyme expression was unaffected by the compounds. […] As any major differences in the expression levels of the different enzymes could in theory contribute to the apparent differential effects of TTZ-1 and TTZ-2, we directly compared the expression of zDHHC2, zDHHC3, zDHHC7, zDHHC15, and zDHHC17 when transfected in HEK293T cells together with GFP-SNAP25.
Figure 6 Activity of TTZ-1 and TTZ-2 against SNAP25 S-acylation by human zDHHC2, zDHHC3, zDHHC7, zDHHC15, and zDHHC17 expressed in mammalian cells.A–E, HEK293T cells were transfected with a plasmid encoding GFP-SNAP25b together with either a control plasmid pEF-BOS-HA (pEF) or a plasmid encoding either HA-tagged human zDHHC2 (zD2) (A), zDHHC3 (zD3) (B), zDHHC7 (zD7) (C), zDHHC15 (zD15) (D), or zDHHC17 (zD17) (E) for 24 h. […] Three independent experiments were performed either in duplicate or in triplicate, and the quantification data were gathered on the graphs below each set of membranes. […]

O=C(Nc1cccc2c1OC(c1nnn[nH]1)CN2)c1ccc(OCCCCc2ccccc2)cc1 (centres unmarked) [TTZ-2, N-(2-(1H-Tetrazol-5-yl)-3,4-dihydro-2H-benzo[b][1,4]oxazin-8-yl)-4-(4-phenylbutoxy)benzamide]
inhibition at 25 µM: 93 ± 6%

CCCCCCCOc1ccc(C(=O)Nc2cccc3c2OC(c2nnn[nH]2)CN3)cc1 (centres unmarked) [TTZ-1, N-(2-(1H-Tetrazol-5-yl)-3,4-dihydro-2H-benzo[b][1,4]oxazin-8-yl)-4-(heptyloxy)benzamide]
inhibition at 25 µM: 112 ± 6%
